In paper PMC9572083, “Hybrids of 1,4-Quinone with Quinoline Derivatives: Synthesis, Biological Activity, and Molecular Docking with DT-Diaphorase (NQO1)” (Molecules, 2022):

What was measured:
[1] = target: T1, NQO1 (DT-diaphorase, EC 1.6.5.5, human recombinant) (Homo sapiens, UniProt P15559); assay: NQO1 substrate NADPH recycling enzymatic assay; format: biochemical; details: compound 10 µmol/L, pH 7.4, 25 °C, absorbance at 340 nm
T1 construct: purchased Sigma-Aldrich
Procedure: The interaction between 1,4-quinone moiety of hybrid and NQO1 protein leads to reduction in quinone to hydroquinone and production of reactive oxide form (ROS). According to a literature method, the ability of hybrids 11–14 and streptonigrin (ST) to be a substrate for NQO1 was examined by measuring the oxidation of NADPH to NADP^+ [29, 32].
Compounds 11–14 (10 µmol/L) were tested as NQO1 substrates using the NADPH recycling assay according to the literature method. The recombinant NQO1 (DT-diaphorase, EC 1.6.5.5, human recombinant, Sigma-Aldrich) was used, and the oxidation of NADPH to NADP^+ was measured at the absorption wavelength of 340 nm on the BioTek 800TS microplate reader (BioKom, Janki, Poland). Compounds were dissolved in dimethyl sulfoxide (2 µL) and added to the 96-well plate. The NQO1 protein (1.4 µg/mL) in 50 mmol/L potassium phosphate buffer (pH = 7.4) was added to each well (198 µL) (Nunc Thermo Fisher Scientific, Waltham, MA, USA). Once the 96-well plate was filled with the assay solutions, except the NADPH solution, it was placed into the instrument and left to sit for 5 min before starting the measurements. The enzymatic reaction was initiated by automatically dispensing the NADPH solution into the wells, and data were recorded at 10 s intervals for 5 min at 25 °C. The linear part of the absorbance vs. time graphs (the first 20 s to 1 min) was fitted, and the slopes were calculated. NADPH oxidation rates were compared with reactions lacking the tested compound. Initial velocities were calculated, and data were expressed as µmol NADPH/µmol NQO1/min. All reactions were carried out at least in triplicate.

[2] = tested on: Colo-829 cells; assay: Cytotoxic activity, WST-1 assay, melanoma Colo-829; format: cell-based, human; details: for SI (IC50 HFF-1/IC50 cancer line) Colo-829: HFF-1 vs Colo-829; for IC50: Homo sapiens, melanoma Colo-829, 72 h, WST-1
From the text: (§1) Anticancer activity of compounds 11–14 was designated against following human cancer cell lines: melanoma (Colo-829), ovarian cancer (SK-OV-3), breast cancer (MDA-MB-231, T47D and MCF-7), lung cancer (A549) and normal fibroblasts (HFF-1). As a reference substance, the doxorubicin was used. The results are presented in Table 1 as IC50, where IC50 means the concentration of tested compounds (µM) causing the growth inhibition of 50% for given tumor cells. The negative value (Neg.) means that the IC50 is higher than 30 µM. Selectivity index (SI) as the ratio of the IC50 for normal fibroblast (HFF-1) to IC50 of the corresponding cell line, is presented in Table S2.
(§2) Compounds 7–14 and doxorubicin were tested for cytotoxic activity in vitro against panel of human cancer cell lines: melanoma (Colo-829, ATCC, Rockville, MD, USA), ovarian cancer (SK-OV-3, ATCC, Rockville, MD, USA), breast cancer (T47D, MCF-7, and MDA-MB-231, ATCC, Rockville, MD, USA) and lung cancer (A549, ATCC, Rockville, MD, USA). The cultured cells were kept at 37 °C and 5% CO2. The cells were seeded (5 × 10^4 cells/well/[…] DMEM supplemented with 10% FCS and streptomycin/penicillin) using 96-well plates (Nunc Thermo Fisher Scientific, Waltham, MA, USA). The tested compounds 7–14 with the concentration of 1–100 µg/mL DMSO were inducted with the cancer cells for 72 h. The WST-1-formazan (proliferation reagent WST-1 assay, Roche Diagnostics, Mannheim, Germany) was detected using a microplate reader at 450 nm. Results were expressed as a mean value of at least three independent experiments performed in triplicate.

[3] = tested on: SK-OV-3 cells; assay: Cytotoxic activity, WST-1 assay, ovarian cancer SK-OV-3; format: cell-based, human; details: for SI (IC50 HFF-1/IC50 cancer line) SK-OV-3: HFF-1 vs SK-OV-3; for IC50: Homo sapiens, ovarian cancer SK-OV-3, 72 h, WST-1
From the text: as §1, §2

[4] = tested on: MDA-MB-231 cells; assay: Cytotoxic activity, WST-1 assay, breast cancer MDA-MB-231; format: cell-based, human; details: for SI (IC50 HFF-1/IC50 cancer line) MDA-MB-231: HFF-1 vs MDA-MB-231; for IC50: Homo sapiens, breast cancer MDA-MB-231, 72 h, WST-1
From the text: as §1, §2

[5] = tested on: T47D cells; assay: Cytotoxic activity, WST-1 assay, breast cancer T47D; format: cell-based, human; details: for SI (IC50 HFF-1/IC50 cancer line) T47D: HFF-1 vs T47D; for IC50: Homo sapiens, breast cancer T47D, 72 h, WST-1
From the text: as §1, §2

[6] = tested on: MCF-7 cells; assay: Cytotoxic activity, WST-1 assay, breast cancer MCF-7; format: cell-based, human; details: for SI (IC50 HFF-1/IC50 cancer line) MCF-7: HFF-1 vs MCF-7; for IC50: Homo sapiens, MCF7, breast cancer MCF-7, 72 h, WST-1
From the text: as §1, §2

[7] = tested on: A549 cells; assay: Cytotoxic activity, WST-1 assay, lung cancer A549; format: cell-based, human; details: for SI (IC50 HFF-1/IC50 cancer line) A549: HFF-1 vs A549; for IC50: Homo sapiens, lung cancer A549, 72 h, WST-1
From the text: as §1, §2

[8] = tested on: HFF-1 cells; assay: Cytotoxic activity, WST-1 assay, normal fibroblasts HFF-1; format: cell-based; details: Homo sapiens, normal fibroblasts HFF-1, 72 h
From the text: as §1, §2

[9] = tested on: TP53; assay: Transcriptional activity of TP53 gene in A549 cells (RT-QPCR); format: cell-based, human; details: 24 h, concentration equal to half of IC50
Procedure: The mechanism of anticancer activity was determined by detection of transcriptional activity of the genes encoding a proliferation marker (H3 histone), cell cycle regulators (p53 and p21), and the mitochondrial apoptosis pathway (BCL-2 and BAX) (Figure 3a–d). The derivatives 11b, 12b, 13b, and 14b were selected for this study.
Transcriptional activity of genes (TP53, CDKN1A, BAX, and BCL-2) was rated by real-time RT-QPCR using Opticon™ DNA Engine system (MJ Research, Watertown, NY, USA) and QuantTect® SYBR® Green RT-PCR Kit (Qiagen, Hilden, Germany). Cultured cells were incubated with tested compounds for 24 h. RNA was extracted using Quick-RNA™ MiniPrep kit columns (Zymo Research, Irvine, CA, USA). The extracted RNA was assessed qualitatively and quantitatively. The amount and purity of the total RNA in extracts were determined spectrophotometrically (HP8452A apparatus, Hewlett Packard, Waldbronn, Germany).

T1 sequence (P15559 whole entry): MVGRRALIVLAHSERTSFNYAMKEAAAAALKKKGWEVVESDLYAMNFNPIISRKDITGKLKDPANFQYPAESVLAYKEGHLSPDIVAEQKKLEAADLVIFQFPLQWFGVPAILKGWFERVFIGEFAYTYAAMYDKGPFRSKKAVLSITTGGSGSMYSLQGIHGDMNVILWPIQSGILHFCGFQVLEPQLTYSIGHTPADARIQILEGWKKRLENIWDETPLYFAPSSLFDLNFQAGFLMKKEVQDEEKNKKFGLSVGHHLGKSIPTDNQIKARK

Row | SMILES | NQO1 activity (enzymatic conversion rate) [1] [µmol NADPH/µmol NQO1/min] | SI (IC50 HFF-1/IC50 cancer line) Colo-829 [2] | IC50 [2] [nM] | SI (IC50 HFF-1/IC50 cancer line) SK-OV-3 [3] | IC50 [3] [nM] | SI (IC50 HFF-1/IC50 cancer line) MDA-MB-231 [4] | IC50 [4] [nM] | SI (IC50 HFF-1/IC50 cancer line) T47D [5] | IC50 [5] [nM] | SI (IC50 HFF-1/IC50 cancer line) MCF-7 [6] | IC50 [6] [nM] | SI (IC50 HFF-1/IC50 cancer line) A549 [7] | IC50 [7] [nM] | IC50 [8] [nM] | TP53 gene expression [9] | melting point [°C]
1 | Cc1ccc2cccc(OC3=C(Cl)C(=O)c4cccnc4C3=O)c2n1 [Compound 11b, 6-chloro-7-[(2-methylquinolin-8-yl)oxy]quinoline-5,8-dione] | 1294 ± 51 | 13.56 | 1920 ± 110 | 15.40 | 1690 ± 30 | 15.87 | 1640 ± 150 | 10.76 | 2420 ± 130 | 12.34 | 2110 ± 80 | 14.62 | 1780 ± 210 | 26100 ± 1020 | significant increase | 110 to 112
2 | Cc1ccc2c(n1)C(=O)C(Oc1cccc3ccc(C)nc13)=C(Cl)C2=O [Compound 12b, 6-chloro-2-methyl-7-[(2-methylquinolin-8-yl)oxy]quinoline-5,8-dione] | 1437 ± 42 | 6.01 | 1690 ± 80 | 6.81 | 1490 ± 210 | 6.46 | 1570 ± 190 | 5.34 | 1900 ± 230 | 5.70 | 1780 ± 30 | 7.10 | 1430 ± 60 | 10200 ± 1330 | significant increase | 130 to 132
3 | O=C1C(Cl)=C(Oc2cccc3cccnc23)C(=O)c2cnccc21 [Compound 13a, 6-chloro-7-(quinolin-8-yloxy)isoquinoline-5,8-dione] | 1210 ± 23 | 162.88 | 170 ± 20 | 60.20 | 460 ± 20 | 27.15 | 1020 ± 150 | 307.67 | 90 ± 40 | 23.87 | 1160 ± 150 | 923.00 | 30 ± 10 | 27700 ± 700 |  | 86 to 88
4 | O=Cc1ccc2cccc(OC3=C(Cl)C(=O)c4ccncc4C3=O)c2n1 [Compound 13c, 8-[(6-chloro-5,8-dioxo-5,8-dihydroisoquinolin-7-yl)oxy]quinoline-2-carbaldehyde] | 318 ± 19 | 38.97 | 340 ± 280 | 41.41 | 320 ± 10 | 17.67 | 750 ± 90 | 25.48 | 520 ± 80 | 14.89 | 890 ± 30 | 10.04 | 1320 ± 320 | 13200 ± 850 |  | 166 to 168
5 | O=C1C(Cl)=C(Oc2cccc3ccc(Cl)nc23)C(=O)c2cnccc21 [Compound 13d, 6-chloro-7-[(2-chloroquinolin-8-yl)oxy]isoquinoline-5,8-dione] | 633 ± 32 | 5.66 | 1960 ± 80 | 0.65 | 17100 ± 1760 | 6.64 | 1670 ± 110 |  | > 30000 | 6.34 | 1750 ± 190 | 184.83 | 60 ± 10 | 11100 ± 1070 |  | 127 to 129
6 | O=C1C(Cl)=C(Oc2cccc3cccnc23)C(=O)c2ccccc21 [Compound 14a, 2-chloro-3[(quinolin-8-yl)oxy]naphthalene-1,4-dione] | 1282 ± 29 | 0.84 | 15300 ± 2560 | 7.54 | 1700 ± 290 | 0.84 | 15200 ± 850 |  | > 30000 | 0.91 | 14100 ± 980 | 19.71 | 650 ± 70 | 12800 ± 850 |  | 115 to 117
7 | O=Cc1ccc2cccc(OC3=C(Cl)C(=O)c4ccccc4C3=O)c2n1 [Compound 14c, 8-[(3-chloro-1,4-dioxo-1,4-dihydronaphthalen-2-yl)oxy]quinoline-2-carbaldehyde] | 550 ± 62 |  | > 30000 | 71.84 | 250 ± 60 | 0.71 | 25100 ± 970 | 11.09 | 1620 ± 210 |  | > 30000 | 43.80 | 410 ± 60 | 18000 ± 1750 |  | 131 to 133
8 | O=C1C(Cl)=C(Oc2cccc3ccc(Cl)nc23)C(=O)c2ccccc21 [Compound 14d, 2-chloro-3-[(2-chloroquinolin-8-yl)oxy]naphthalene-1,4-dione] | 1001 ± 43 | 0.80 | 18000 ± 2010 | 1.01 | 14100 ± 520 | 6.99 | 2050 ± 350 |  | > 30000 | 1.23 | 11700 ± 1340 | 1.76 | 8130 ± 1020 | 14300 ± 1230 |  | 101 to 103
